{"source": "patent US20190015423A1", "about": "“REGULATION OF GENE EXPRESSION BY MODULATING PRIMARY CILIA LENGTH” (THE TRUSTEES OF COLUMBIA UNIVERSITY IN THE CITY OF NEW YORK, priority 2016, published 2019)", "key": {"[1]": {"tested_on": "Ovariectomized (OVX) mice", "assay": "Load-induced bone formation in ovariectomized (OVX) osteoporotic mice", "type": "in vivo", "conditions": "fenoldopam 20 mg/kg 7 days, compressive ulnar load", "method": "On the final three days of drug or control injection, animals were also subjected to compressive ulnar load at a peak load of 3 N using a 2 Hz sine wave for 120 cycles, as previously described ([…]. et al. PLoS One 7, (2012); Lee, K. L. et al. FASEB J. 28, 1157-1165 (2014)). Contralateral limbs served as a non-loaded control. 2 days following load, mice were treated with 10 mg/kg calcein (Sigma), and 4 days later 70 mg/kg alizarin (Sigma), with mice being sacrificed 6 days later. Dynamic histomorphometry was performed as previously described, measuring the amount and separation of calcein and alizarin labels to quantify mineralizing surface (rMS/BS), mineral apposition rate (rMAR), and bone formation rate (rBFR/BS) relative to non-loaded controls ([…]. et al. PLoS One 7, (2012); Lee, K. L. et al. FASEB J. 28, 1157-1165 (2014)). Left and right ulnae were dissected and preserved in ethanol. Samples were then infiltrated with methyl methacrylate, and embedded in methyl methacrylate and benzoyl peroxide. Transverse sections of the ulnar midshaft were imaged on a laser scanning confocal microscope (Olympus Fluoview FV1000). Measurements of outer bone perimeter (OP), single label perimeter (SL), double label perimeter (DL), and double label area (DA) were made in ImageJ. The mineralizing surface relative to outer bone surface (MS/BS), mineral apposition rate (MAR), and bone formation rate (BFS/BS) were calculated as: Relative measurements-rMS/BS, rMAR, rBFR/BS-were determined by subtracting non-loaded from loaded ulnae to display differences due to mechanical load. Ovariectomized (OVX) and Sham animals were purchased directly from Jackson Laboratories, with surgery performed at 12 weeks old. […] Dynamic histomorphometry was only performed on OVX animals, while Sham animals were used to confirm osteoporotic phenotype based on μCT analysis."}, "C3H10T1/2 MSCs": {"tested_on": "C3H10T1/2 MSCs", "assay": "Flow-induced paracrine signaling: conditioned media of treated osteocytes on MSCs (OSX mRNA)", "type": "cell-based", "conditions": "osteocytes treated with fenoldopam 10 μM 16 hours; MSCs cultured 48 hours in conditioned media", "method": "Osteocytes were seeded at 2800 cells/cm2 for 72 hours before application of fluid flow. MC3T3 osteoblasts were cultured in MEMα supplemented with 10% FBS and 1% P/S. Osteoblasts were seeded at 2000 cells/cm2 72 hours before receiving conditioned media. C3H10T1/2 MSCs were cultured in DMEM low glucose (Life Technologies) supplemented with 10% FBS and 1% P/S, and seeded at 1100 cells/cm2 72 hours before culture with conditioned media 150. […] Osteocytes were cultured on rectangular flasks (8.2×9.2 cm; 12.5 ml of media) on a rocking platform which oscillated at a frequency of 0.33 Hz with an amplitude of 1.3 cm, supplying 0.08 Pa shear stress for 2, 6, 12, or 24 hours, FIG. 4.2. Shear stress generated by oscillatory fluid flow was calculated as previously performed 153. 12 hours of fluid flow was used in all experiments. Cells were also cultured in static conditions as a no flow control. Conditioned media was collected from osteocytes immediately upon completion of rocking, and used to culture osteoblasts or MSCs for 24 or 48 hours, respectively. […] Gene expression was analyzed by quantitative real-time PCR using primers and probes (Life Technologies) for analysis of osteopontin, OPN (Mm00436767_m1), osterix, OSX (Mm04209856_m1), and GAPDH (4351309). […]"}, "MLO-Y4 osteocytes [2]": {"tested_on": "MLO-Y4 osteocytes", "assay": "mRNA expression (AC6, IFT88) by quantitative real-time PCR, no flow", "type": "cell-based", "conditions": "for IFT88 mRNA expression in untransfected cells: fenoldopam"}, "MLO-Y4 osteocytes [3]": {"tested_on": "MLO-Y4 osteocytes", "assay": "Primary cilia length and incidence by immunocytochemistry (acetylated α-tubulin)", "type": "cell-based", "conditions": "for cilia incidence in untransfected (healthy, ciliated) cells: fenoldopam; for cilia incidence in AC6 siRNA treated cells / recovering cilia length in AC6 siRNA treated cells: fenoldopam on AC6 siRNA treated cells", "method": "MLO-Y4 osteocytes were cultured on collagen-coated dishes in MEMα (Life Tech) supplemented with 5% fetal bovine serum, 5% calf serum, and 1% penicillin/streptomycin at 37° C. and 5% CO2. […] These agents, or their vehicle control, were applied to cells for 16 h prior to experimentation. MTT, (methylthiazolyldiphenyl-tetrazolium bromide) assay (Sigma) was performed according to manufacturer's protocol to assess cell viability during drug treatments. Phase contrast microscopy with an Olympus CKX41 inverted microscope and 40× objective was used to assess cell morphology.\nFor primary cilia imaging and analysis, cells cultured on collagen I-coated glass were fixed in 10% formalin and treated with anti-acetylated α-tubulin primary antibody, 1:1, from a C3B9 hybridoma cell line (Sigma). Cilia were visualised with Alexa-Fluor 488 secondary antibody, 1:1000 (Life Technologies) and imaged with a 100× oil objective on an Olympus Fluoview FV1000 confocal microscope. Nuclei were stained with DAPI (Life Technologies). Cilia length was analyzed using Image J software.\nGene silencing was performed by siRNA mediated knockdown and compared to scramble siRNA control (Life Technologies). […]"}, "[4]": {"conditions": "fenoldopam treatment of osteocytes"}, "[5]": {"conditions": "fenoldopam on IFT88 siRNA treated cells"}}, "note": "“Also recorded” adds a separate entry of the source. Counter-ions that a name gives are not always drawn."}
{"compound": "Oc1ccc(C2CNCCc3c2cc(O)c(O)c3Cl)cc1", "note": "(centres unmarked) [fenoldopam, Fenoldopam mesylate]", "values": [{"measurement": "bone formation rate (rBFR/BS) compared to vehicle control", "setting": "[1]", "value": "increased"}, {"measurement": "mineral apposition rate (rMAR) compared to vehicle control", "setting": "[1]", "value": "increased"}, {"measurement": "mineralizing surface (rMS/BS) compared to vehicle control", "setting": "[1]", "value": "increased"}, {"measurement": "MSC osteogenic differentiation, as measured by osterix (OSX) expression", "setting": "C3H10T1/2 MSCs", "value": "significantly enhanced"}, {"measurement": "IFT88 mRNA expression in untransfected cells", "setting": "MLO-Y4 osteocytes [2]", "value": "no significant effect"}, {"measurement": "AC6 mRNA expression (in words)", "setting": "MLO-Y4 osteocytes [2]; [4]", "value": "significantly increases"}, {"measurement": "increase in AC6 mRNA expression", "setting": "MLO-Y4 osteocytes [2]; [4]", "value": "20%±8%"}, {"measurement": "IFT88 mRNA expression in untransfected cells", "setting": "MLO-Y4 osteocytes [2]; listed as Fenoldopam", "value": "did not alter"}, {"measurement": "primary cilia length compared to vehicle control (in words)", "setting": "MLO-Y4 osteocytes [3]; 10 μM fenoldopam, 16 h", "value": "significantly increases"}, {"measurement": "primary cilia length compared to vehicle control (in words)", "setting": "MLO-Y4 osteocytes [3]; 10 μM fenoldopam, 16 h, listed as Fenoldopam", "value": "increased"}, {"measurement": "increases in cilia length compared to vehicle control", "setting": "MLO-Y4 osteocytes [3]; 10 μM fenoldopam, 16 h, mean±SEM", "value": "26%±7%"}, {"measurement": "cilia incidence in untransfected (healthy, ciliated) cells", "setting": "MLO-Y4 osteocytes [3]", "value": "no significant effect"}, {"measurement": "cilia incidence in AC6 siRNA treated cells", "setting": "MLO-Y4 osteocytes [3]", "value": "Neither AC6 siRNA nor fenoldopam alter cilia incidence"}, {"measurement": "recovering cilia length in AC6 siRNA treated cells", "setting": "MLO-Y4 osteocytes [3]", "value": "not recovered"}, {"measurement": "cilia incidence in AC6 siRNA treated cells", "setting": "MLO-Y4 osteocytes [3]; listed as Fenoldopam", "value": "no effect"}, {"measurement": "recovering cilia length in AC6 siRNA treated cells", "setting": "MLO-Y4 osteocytes [3]; listed as Fenoldopam", "value": "no effect"}, {"measurement": "cilia incidence in IFT88 siRNA treated cells", "setting": "MLO-Y4 osteocytes [3]; [5]", "value": "significantly recovering; also recorded: recovered"}, {"measurement": "cilia length / formation in IFT88 siRNA treated cells", "setting": "MLO-Y4 osteocytes [3]; [5]", "value": "noticeably recovered; also recorded: appears to recover cilia length"}, {"measurement": "cilia length / formation in IFT88 siRNA treated cells", "setting": "MLO-Y4 osteocytes [3]; fenoldopam on IFT88 siRNA treated cells, listed as Fenoldopam", "value": "recovers primary cilia formation"}, {"measurement": "cilia incidence in untransfected (healthy, ciliated) cells", "setting": "MLO-Y4 osteocytes [3]; listed as Fenoldopam", "value": "no effect"}]}
